Experiments:
[1] = biological target: T1, Interleukin-1 receptor-associated kinase 4 (Homo sapiens) (UniProt Q9NWZ3); test: Inhibition of human IRAK4 catalytic domain expressed in baculovirus assessed as substrate phosphorylation using fluorescence-labelled peptides as substrate at 9 uM after 90 mins by microfluidic peptide phosphorylation assay
T1 sequence (whole entry): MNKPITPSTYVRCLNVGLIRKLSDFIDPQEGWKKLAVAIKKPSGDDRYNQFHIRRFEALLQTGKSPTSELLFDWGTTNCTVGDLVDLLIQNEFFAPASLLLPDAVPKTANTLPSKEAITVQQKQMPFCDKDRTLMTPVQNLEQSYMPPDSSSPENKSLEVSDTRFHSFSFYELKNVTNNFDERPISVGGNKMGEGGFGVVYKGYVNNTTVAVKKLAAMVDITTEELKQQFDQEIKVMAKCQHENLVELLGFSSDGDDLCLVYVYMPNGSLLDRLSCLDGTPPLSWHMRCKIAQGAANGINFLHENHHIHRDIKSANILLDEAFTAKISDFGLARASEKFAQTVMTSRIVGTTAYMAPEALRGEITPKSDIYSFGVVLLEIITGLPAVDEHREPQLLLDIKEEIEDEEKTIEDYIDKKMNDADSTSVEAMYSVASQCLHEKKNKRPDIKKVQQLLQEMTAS

[2] = biological target: T2, Aurora kinase C (Homo sapiens) (UniProt Q9UQB9); test: Inhibition of human full length AurC expressed in baculovirus assessed as substrate phosphorylation using fluorescence-labelled peptides as substrate at 95 uM after 90 mins by microfluidic peptide phosphorylation assay
T2 sequence (whole entry): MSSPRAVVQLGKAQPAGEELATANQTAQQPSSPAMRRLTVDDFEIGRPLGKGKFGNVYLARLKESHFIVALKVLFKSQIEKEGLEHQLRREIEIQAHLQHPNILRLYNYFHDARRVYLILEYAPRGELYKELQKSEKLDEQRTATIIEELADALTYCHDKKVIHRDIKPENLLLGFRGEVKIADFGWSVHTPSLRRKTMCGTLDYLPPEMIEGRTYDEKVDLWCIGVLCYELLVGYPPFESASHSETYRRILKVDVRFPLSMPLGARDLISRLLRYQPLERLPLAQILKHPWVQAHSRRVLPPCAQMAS

[3] = biological target: Protein kinase C theta type (Homo sapiens) (UniProt Q04759); test: Inhibition of human truncated PKC theta expressed in baculovirus assessed as substrate phosphorylation using fluorescence-labelled peptides as substrate at 0.06 uM after 90 mins by microfluidic peptide phosphorylation assay
Protein kinase C theta type (Homo sapiens), sequence (Q04759 whole entry, looked up, the tested form may be a part): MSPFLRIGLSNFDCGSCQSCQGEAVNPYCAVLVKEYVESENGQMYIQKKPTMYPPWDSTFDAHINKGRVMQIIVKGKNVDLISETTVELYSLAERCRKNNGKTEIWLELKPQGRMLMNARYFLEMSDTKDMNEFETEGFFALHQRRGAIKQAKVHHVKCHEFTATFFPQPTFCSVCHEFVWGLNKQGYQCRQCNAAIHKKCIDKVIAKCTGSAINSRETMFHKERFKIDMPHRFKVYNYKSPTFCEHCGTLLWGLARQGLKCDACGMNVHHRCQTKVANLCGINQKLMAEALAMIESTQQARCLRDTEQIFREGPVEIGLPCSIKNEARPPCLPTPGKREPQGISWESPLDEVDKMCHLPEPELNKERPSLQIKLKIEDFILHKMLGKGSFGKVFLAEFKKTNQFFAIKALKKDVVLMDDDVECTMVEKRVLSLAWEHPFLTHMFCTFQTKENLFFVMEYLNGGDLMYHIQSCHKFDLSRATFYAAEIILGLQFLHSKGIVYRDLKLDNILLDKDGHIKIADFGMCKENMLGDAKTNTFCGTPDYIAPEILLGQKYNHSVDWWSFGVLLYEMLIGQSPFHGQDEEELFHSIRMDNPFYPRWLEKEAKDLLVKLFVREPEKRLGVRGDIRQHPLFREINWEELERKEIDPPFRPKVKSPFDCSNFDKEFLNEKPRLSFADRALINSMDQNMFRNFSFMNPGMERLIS

[4] = biological target: T3, Mitogen-activated protein kinase 12 (Homo sapiens) (UniProt P53778); test: Inhibition of human full length p38 gamma expressed in Escherichia coli cell assessed as substrate phosphorylation using fluorescence-labelled peptides as substrate at 70 uM after 90 mins by microfluidic peptide phosphorylation assay
T3 sequence (whole entry): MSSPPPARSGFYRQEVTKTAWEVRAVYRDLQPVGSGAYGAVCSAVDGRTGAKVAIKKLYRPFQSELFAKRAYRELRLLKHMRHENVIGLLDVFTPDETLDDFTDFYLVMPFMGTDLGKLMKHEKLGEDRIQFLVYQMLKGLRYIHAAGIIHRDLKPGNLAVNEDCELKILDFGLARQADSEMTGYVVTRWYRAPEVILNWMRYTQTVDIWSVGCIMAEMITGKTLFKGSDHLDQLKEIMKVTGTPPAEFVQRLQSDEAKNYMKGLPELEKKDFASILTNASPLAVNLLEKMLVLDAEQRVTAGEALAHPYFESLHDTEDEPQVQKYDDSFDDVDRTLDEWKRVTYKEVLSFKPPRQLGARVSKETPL

[5] = biological target: T4, cGMP-dependent protein kinase 1 (Homo sapiens) (UniProt Q13976); test: Inhibition of human full length PKG-1a expressed in baculovirus assessed as substrate phosphorylation using fluorescence-labelled peptides as substrate at 0.2 uM after 90 mins by microfluidic peptide phosphorylation assay
T4 sequence (whole entry): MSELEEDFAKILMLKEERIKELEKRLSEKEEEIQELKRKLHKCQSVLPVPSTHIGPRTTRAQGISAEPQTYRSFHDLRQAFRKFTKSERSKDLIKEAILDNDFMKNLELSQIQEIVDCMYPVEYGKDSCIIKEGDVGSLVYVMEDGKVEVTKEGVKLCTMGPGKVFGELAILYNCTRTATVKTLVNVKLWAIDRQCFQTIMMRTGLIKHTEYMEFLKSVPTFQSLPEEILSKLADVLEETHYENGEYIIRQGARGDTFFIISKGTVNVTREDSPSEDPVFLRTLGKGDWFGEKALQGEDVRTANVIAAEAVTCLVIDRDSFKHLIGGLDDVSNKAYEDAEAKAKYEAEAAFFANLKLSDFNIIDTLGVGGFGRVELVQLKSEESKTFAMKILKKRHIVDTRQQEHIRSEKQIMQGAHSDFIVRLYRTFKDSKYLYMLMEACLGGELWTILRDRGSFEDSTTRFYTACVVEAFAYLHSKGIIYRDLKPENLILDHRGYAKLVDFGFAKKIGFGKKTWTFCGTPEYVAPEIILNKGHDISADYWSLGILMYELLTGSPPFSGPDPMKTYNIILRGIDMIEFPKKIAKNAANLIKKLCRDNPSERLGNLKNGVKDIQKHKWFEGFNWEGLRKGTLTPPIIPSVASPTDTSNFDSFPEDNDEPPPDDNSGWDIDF

[6] = biological target: Protein kinase C eta type (Homo sapiens) (UniProt P24723); test: Inhibition of human truncated PKC eta expressed in baculovirus assessed as substrate phosphorylation using fluorescence-labelled peptides as substrate at 2 uM after 90 mins by microfluidic peptide phosphorylation assay
Protein kinase C eta type (Homo sapiens), sequence (P24723 whole entry, the tested form may be a part): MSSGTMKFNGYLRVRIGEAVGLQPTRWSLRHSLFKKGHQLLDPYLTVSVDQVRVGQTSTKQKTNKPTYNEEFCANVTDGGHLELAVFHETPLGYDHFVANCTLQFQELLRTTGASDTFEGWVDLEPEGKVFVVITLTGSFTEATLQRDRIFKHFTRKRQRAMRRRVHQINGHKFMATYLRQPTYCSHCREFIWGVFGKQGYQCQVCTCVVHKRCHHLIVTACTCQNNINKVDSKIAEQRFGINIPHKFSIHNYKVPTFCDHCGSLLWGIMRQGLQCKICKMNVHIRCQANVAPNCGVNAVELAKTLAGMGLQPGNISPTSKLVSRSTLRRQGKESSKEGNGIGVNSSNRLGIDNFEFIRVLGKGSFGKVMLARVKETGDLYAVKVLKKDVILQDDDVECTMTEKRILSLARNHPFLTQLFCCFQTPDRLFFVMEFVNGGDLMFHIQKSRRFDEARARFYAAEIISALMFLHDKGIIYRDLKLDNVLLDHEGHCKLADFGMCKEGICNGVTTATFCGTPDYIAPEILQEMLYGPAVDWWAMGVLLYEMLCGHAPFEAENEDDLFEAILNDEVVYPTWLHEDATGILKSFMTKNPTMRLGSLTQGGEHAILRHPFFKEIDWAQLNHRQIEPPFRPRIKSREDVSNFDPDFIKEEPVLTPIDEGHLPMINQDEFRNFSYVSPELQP

[7] = biological target: T5, Protein kinase C zeta type (Homo sapiens) (UniProt Q05513); test: Inhibition of human full length PKC zeta expressed in baculovirus assessed as substrate phosphorylation using fluorescence-labelled peptides as substrate at 8 uM after 90 mins by microfluidic peptide phosphorylation assay
T5 sequence (whole entry): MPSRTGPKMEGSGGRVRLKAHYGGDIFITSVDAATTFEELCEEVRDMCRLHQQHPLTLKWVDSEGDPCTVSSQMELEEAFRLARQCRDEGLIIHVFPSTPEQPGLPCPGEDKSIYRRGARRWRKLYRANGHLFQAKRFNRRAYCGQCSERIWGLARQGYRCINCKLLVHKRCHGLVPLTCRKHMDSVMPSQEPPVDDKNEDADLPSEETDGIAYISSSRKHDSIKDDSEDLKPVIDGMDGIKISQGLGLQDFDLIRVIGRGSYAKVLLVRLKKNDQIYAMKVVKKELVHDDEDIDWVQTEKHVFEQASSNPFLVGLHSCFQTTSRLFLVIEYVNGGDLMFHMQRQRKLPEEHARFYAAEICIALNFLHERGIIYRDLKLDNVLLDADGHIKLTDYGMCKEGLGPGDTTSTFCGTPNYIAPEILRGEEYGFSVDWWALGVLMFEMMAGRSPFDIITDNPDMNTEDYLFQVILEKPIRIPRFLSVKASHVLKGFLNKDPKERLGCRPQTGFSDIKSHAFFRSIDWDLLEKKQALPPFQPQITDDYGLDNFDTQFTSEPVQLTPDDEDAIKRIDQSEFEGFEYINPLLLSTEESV

Work on `NCC1CN(c2ncnc3[nH]c4cnccc4c23)CCO1` (configuration not stated) yielded an inhibition [1] of 56.5%.
For `NCCc1ccc(-c2ncnc3[nH]cnc23)cc1`, the inhibition [2] was 87.5%.
In the case of `NC1(Cc2ccc(Cl)cc2)CCN(c2ncnc3[nH]ccc23)CC1`, the inhibition [3] is reported as 4.5%.
Molecule `CNCc1ccc(-c2ncnc3[nH]cnc23)cc1` has an inhibition [4] of 15%.
With `Clc1ccc(C2(c3ccc(-c4ncnc5[nH]cnc45)cc3)CCNCC2)cc1` the inhibition [5] was 88.5%.
With `NC1CCN(c2ncnc3[nH]ccc23)CC1` the inhibition [6] was 56.5%.
Molecule `NCC1CCN(c2ncnc3[nH]ccc23)CC1` has an inhibition [7] of 67.5%.

From ChEMBL document CHEMBL3132769, “Fragment growing to retain or alter the selectivity of anchored kinase hinge-binding fragments” (Medchemcomm, 2014)
